Two compounds from US6479499B1 can be followed below.

Assay [1] relates to epidermoid carcinoma of the nasopharynx (KB). Briefly: In vitro cytotoxicity, KB. The settings on record: Homo sapiens, 96 h, read-out: ED50 KB.
A further assay concerns bone (HOS). The assay can be described thus: In vitro cytotoxicity, HOS. The settings on record: Homo sapiens; for IC50: 96 h, read-out: ED50 HOS.
For assay [2], the system named is ten human tumor cell lines. The assay can be described thus: In vitro cytotoxicity, statements on the panel of tumor cell lines.
In a further assay the test system is breast cancer (MCF-7). The assay can be described thus: In vitro cytotoxicity, MCF-7. The settings on record: Homo sapiens; for IC50: MCF7, 96 h, read-out: ED50 MCF-7.
The next assay deals with lung carcinoma (A-549). Briefly: In vitro cytotoxicity, A-549. The settings on record: Homo sapiens, A549, 96 h, read-out: ED50 A-549.
The subject of assay [3] is ileocecal carcinoma (HCT-8). The assay can be described thus: In vitro cytotoxicity, HCT-8. The settings on record: Homo sapiens, HCT-8, 96 h, read-out: ED50 HCT-8.
The test system of assay [4] is human ovarian cancer (1A9). The assay can be described thus: In vitro cytotoxicity, 1A9. The settings on record: 96 h, read-out: ED50 1A9.
A further assay deals with melanoma (SKMEL-2). The assay can be described thus: In vitro cytotoxicity, SKMEL-2. Conditions: for IC50: SK-MEL-2, 96 h, read-out: ED50 SKMEL-2.
The test system of another assay is bovine brain tubulin. Briefly: Tubulin polymerization assay (antimicrotubule assay). The settings on record: read-out: ITP (inhibition of tubulin polymerization) IC50; tubulin […] (12 μM), 26° C., 20 min.
The subject of the next assay is glioblastoma (U-87-MG). Briefly: In vitro cytotoxicity, U-87-MG. Conditions: Homo sapiens; for IC50: 96 h, read-out: ED50 U-87-MG; for inhibition at 20 µg/mL: read-out: Inhibition at highest test concentration (in brackets), U-87-MG.
A further assay has as its system prostate cancer (PC3). Briefly: In vitro cytotoxicity, PC3. Conditions: Homo sapiens; for IC50: 96 h, read-out: ED50 PC3.
The test system of assay [5] is P-gp-expressing epidermoid carcinoma of the nasopharynx (KB-VIN). The assay can be described thus: In vitro cytotoxicity, KB-VIN. The settings on record: Homo sapiens, KBVIN, 96 h, read-out: ED50 KB-VIN.

In brackets after ≈: the same amount, converted by molar mass. Some results are limits rather than exact numbers.

With `COc1cccc(C2NC(=O)c3ccccc3N2)c1` (racemic) [Compound 61, 2,3-Dihydro-2-(3′-methoxyphenyl)-4-quinazolinone], the IC50 in assay [1] is 3 µg/mL (≈ 11.8 µM); in the assay with bone (HOS) it was greater than 20 µg/mL; in the assay with breast cancer (MCF-7) it was greater than 20 µg/mL; with lung carcinoma (A-549), 3 µg/mL (≈ 11.8 µM); in assay [3], 1.5 µg/mL (≈ 5.9 µM); in assay [4] it was 1 µg/mL (≈ 3.93 µM). For the same compound, the IC50 with melanoma (SKMEL-2) (Homo sapiens) was greater than 20 µg/mL; in the assay with bovine brain tubulin, 5.6 ± 1 µM; in the assay on glioblastoma (U-87-MG), greater than 20 µg/mL; in the assay with prostate cancer (PC3) it was greater than 20 µg/mL; in assay [5], 1.2 µg/mL (≈ 4.72 µM). In addition, the inhibition at 20 µg/mL was 42% in the assay on bone (HOS) (read-out: Inhibition at highest test concentration (in brackets), HOS); 48% in the assay with breast cancer (MCF-7) (MCF7, read-out: Inhibition at highest test concentration (in brackets), MCF-7); 49% with melanoma (SKMEL-2) (Homo sapiens, SK-MEL-2, read-out: Inhibition at highest test concentration (in brackets), SKMEL-2); 35% in the assay with glioblastoma (U-87-MG); 43% in the assay on prostate cancer (PC3) (read-out: Inhibition at highest test concentration (in brackets), PC3). Also, the “Times more active than 2′-methoxy (60)” value in assay [2] (more sensitive cell lines) is given as “about 15 times”. The “Times more active than 4′-methoxy (62)” value in assay [2] (more sensitive cell lines) is given as roughly 20 times.

Turning to `COc1cccc(C2NC(=O)c3cc(Cl)ccc3N2)c1` (racemic) [Compound 68, 2,3-Dihydro-2-(3′-methoxyphenyl)-6-chloro-4-quinazolinone], the IC50 came to 0.95 µg/mL (≈ 3.29 µM) in assay [1]; 20 µg/mL (≈ 69.3 µM) in the assay with bone (HOS); 16 µg/mL (≈ 55.4 µM) in the assay on breast cancer (MCF-7); 0.6 µg/mL (≈ 2.08 µM) in the assay on lung carcinoma (A-549); 0.48 µg/mL (≈ 1.66 µM) in [3]; 0.27 µg/mL (≈ 0.935 µM) in assay [4]. Also, the IC50 is less than 2.5 µg/mL with melanoma (SKMEL-2) (Homo sapiens); 1.5 ± 0.01 µM with bovine brain tubulin; greater than 20 µg/mL with glioblastoma (U-87-MG); 2.5 µg/mL (≈ 8.66 µM) in the assay with prostate cancer (PC3); 0.42 µg/mL (≈ 1.45 µM) in [5]. Also, in [2], the “ED50, times less than that of 61” value is on record as “about 5 times”. Further, the “Inhibition value of plateau-dose response (in brackets), SKMEL-2” value in the assay on melanoma (SKMEL-2) (plateau-dose response, inhibition plateaus over broad dose range) turned out to be 56%. Moreover, the inhibition at 20 µg/mL in the assay on glioblastoma (U-87-MG) was 37%.
